# From PubChem BioAssay AID1745844 (Carcinogenic Potency Database (CPDB), 2022)
# Several values for one entry are separate records, joined by “and”; a condition that tells them apart may be missing. Equal values may be shown once. Activity calls are given as the source filed them. No rule for the calls is given here.
# System: rodent lifetime carcinogenesis bioassay, tumor incidence TD50
# Assay: carcinogenic potency in animals, long-term in vivo studies, CPDB compilation (AID 1745844)
smiles,measurement,setting,value
O=c1ccc2ccccc2o1,TD50,"hamster, strain Syrian Golden, females, in feed, site: any site (literature study), lesion: several types, types named in the paper, dosed 95 weeks, study length 104 weeks",5520 mg/kg/day (inactive)
same,carcinogen call,"hamster, strain Syrian Golden, females, in feed, site: liver, lesion: one or several types, types not named, dosed 95 weeks, study length 104 weeks",negative (inactive)
same,TD50,"hamster, strain Syrian Golden, males, in feed, site: any site (literature study), lesion: several types, types named in the paper, dosed 104 weeks, study length 104 weeks",603 mg/kg/day (inactive)
same,carcinogen call,"hamster, strain Syrian Golden, males, in feed, site: liver, lesion: one or several types, types not named, dosed 104 weeks, study length 104 weeks",negative (inactive)
same,TD50,"mouse, strain B6C3F1, females, by gavage, site: any site (literature study), lesion: several types, types named in the paper, dosed 103 weeks, study length 104 weeks",198 mg/kg/day
same,TD50,"mouse, strain B6C3F1, females, by gavage, site: forestomach, lesion: squamous-cell carcinoma + squamous-cell papilloma, dosed 103 weeks, study length 104 weeks",42000 mg/kg/day
same,TD50,"mouse, strain B6C3F1, females, by gavage, site: forestomach, lesion: squamous-cell papilloma, dosed 103 weeks, study length 104 weeks",12200 mg/kg/day
same,TD50,"mouse, strain B6C3F1, females, by gavage, site: liver + lung, lesion: hepatocellular adenoma + hepatocellular carcinoma + alveolar/bronchiolar adenoma + alveolar/bronchiolar carcinoma, dosed 103 weeks, study length 104 weeks",85.5 mg/kg/day
same,TD50,"mouse, strain B6C3F1, females, by gavage, site: liver, lesion: hepatocellular adenoma + hepatoblastoma + hepatocellular carcinoma, dosed 103 weeks, study length 104 weeks",65.7 mg/kg/day
same,TD50,"mouse, strain B6C3F1, females, by gavage, site: liver, lesion: hepatocellular adenoma + hepatocellular carcinoma, dosed 103 weeks, study length 104 weeks",65.7 mg/kg/day
same,TD50,"mouse, strain B6C3F1, females, by gavage, site: liver, lesion: hepatocellular adenoma, dosed 103 weeks, study length 104 weeks",72.8 mg/kg/day
same,TD50,"mouse, strain B6C3F1, females, by gavage, site: lung, lesion: alveolar/bronchiolar adenoma + alveolar/bronchiolar carcinoma, dosed 103 weeks, study length 104 weeks",135 mg/kg/day
same,TD50,"mouse, strain B6C3F1, females, by gavage, site: lung, lesion: alveolar/bronchiolar adenoma, dosed 103 weeks, study length 104 weeks",179 mg/kg/day
same,TD50,"mouse, strain B6C3F1, females, by gavage, site: lung, lesion: alveolar/bronchiolar carcinoma, dosed 103 weeks, study length 104 weeks",825 mg/kg/day
same,TD50,"mouse, strain B6C3F1, males, by gavage, site: all sites, lesion: histiocytic sarcoma + malignant lymphoma, histiocytic type + malignant lymphoma, mixed type + malignant lymphoma, lymphocytic, dosed 103 weeks, study length 104 weeks",600 mg/kg/day
same,TD50,"mouse, strain B6C3F1, males, by gavage, site: any site (literature study), lesion: several types, types named in the paper, dosed 103 weeks, study length 104 weeks",461 mg/kg/day
same,TD50,"mouse, strain B6C3F1, males, by gavage, site: forestomach, lesion: squamous-cell carcinoma + squamous-cell papilloma, dosed 103 weeks, study length 104 weeks",152 mg/kg/day
same,TD50,"mouse, strain B6C3F1, males, by gavage, site: forestomach, lesion: squamous-cell papilloma, dosed 103 weeks, study length 104 weeks",179 mg/kg/day
same,TD50,"mouse, strain B6C3F1, males, by gavage, site: liver, lesion: hepatoblastoma, dosed 103 weeks, study length 104 weeks",632 mg/kg/day
same,TD50,"mouse, strain B6C3F1, males, by gavage, site: lung, lesion: alveolar/bronchiolar adenoma + alveolar/bronchiolar carcinoma, dosed 103 weeks, study length 104 weeks",241 mg/kg/day
same,TD50,"mouse, strain B6C3F1, males, by gavage, site: lung, lesion: alveolar/bronchiolar adenoma, dosed 103 weeks, study length 104 weeks",265 mg/kg/day
same,TD50,"mouse, strain B6C3F1, males, by gavage, site: pancreatic islets, lesion: islet-cell adenoma, dosed 103 weeks, study length 104 weeks",1310 mg/kg/day
same,TD50,"mouse, strain Charles River CD1, females, in feed, site: liver, lesion: several types, types named in the paper, dosed 109 weeks, study length 109 weeks",176 mg/kg/day (inactive)
same,TD50,"mouse, strain Charles River CD1, females, in feed, site: lung, lesion: adenocarcinoma, dosed 109 weeks, study length 109 weeks",3140 mg/kg/day (inactive)
same,TD50,"mouse, strain Charles River CD1, females, in feed, site: lung, lesion: adenoma, dosed 109 weeks, study length 109 weeks",4500 mg/kg/day (inactive)
same,carcinogen call,"mouse, strain Charles River CD1, males, in feed, site: liver, lesion: several types, types named in the paper, dosed 101 weeks, study length 101 weeks",negative (inactive)
same,TD50,"mouse, strain Charles River CD1, males, in feed, site: lung, lesion: adenocarcinoma, dosed 101 weeks, study length 101 weeks",1020 mg/kg/day (inactive)
same,carcinogen call,"mouse, strain Charles River CD1, males, in feed, site: lung, lesion: adenoma, dosed 101 weeks, study length 101 weeks",negative (inactive)
same,TD50,"rat, strain Fischer 344, females, by gavage, site: any site (literature study), lesion: several types, types named in the paper, dosed 103 weeks, study length 104 weeks",456 mg/kg/day
same,TD50,"rat, strain Fischer 344, females, by gavage, site: kidney, lesion: tubule adenoma, dosed 103 weeks, study length 104 weeks",1410 mg/kg/day and 930 mg/kg/day
same,TD50,"rat, strain Fischer 344, males, by gavage, site: any site (literature study), lesion: several types, types named in the paper, dosed 39 weeks, study length 104 weeks",210 mg/kg/day
same,TD50,"rat, strain Fischer 344, males, by gavage, site: any site (literature study), lesion: several types, types named in the paper, dosed 65 weeks, study length 104 weeks",12.2 mg/kg/day
same,TD50,"rat, strain Fischer 344, males, by gavage, site: any site (literature study), lesion: several types, types named in the paper, dosed 101 weeks, study length 104 weeks",12 mg/kg/day
same,TD50,"rat, strain Fischer 344, males, by gavage, site: forestomach, lesion: squamous-cell papilloma, dosed 101 weeks, study length 104 weeks",142 mg/kg/day
same,TD50,"rat, strain Fischer 344, males, by gavage, site: kidney, lesion: adenoma + tubule adenoma + tubule carcinoma, dosed 101 weeks, study length 104 weeks",13.9 mg/kg/day
same,TD50,"rat, strain Fischer 344, males, by gavage, site: kidney, lesion: adenoma + tubule adenoma, dosed 101 weeks, study length 104 weeks",226 mg/kg/day and 13.9 mg/kg/day
same,TD50,"rat, strain Fischer 344, males, by gavage, site: kidney, lesion: tubule adenoma, dosed 65 weeks, study length 104 weeks",67.6 mg/kg/day
same,TD50,"rat, strain Fischer 344, males, by gavage, site: kidney, lesion: tubule carcinoma, dosed 101 weeks, study length 104 weeks",151 mg/kg/day
same,TD50,"rat, strain Fischer 344, males, by gavage, site: liver, lesion: hepatocellular adenoma + hepatoblastoma + hepatocellular carcinoma, dosed 65 weeks, study length 104 weeks",171 mg/kg/day
same,TD50,"rat, strain Fischer 344, males, by gavage, site: pituitary gland, lesion: pars distalis adenoma, dosed 101 weeks, study length 104 weeks",19.7 mg/kg/day
same,TD50,"rat, strain Fischer 344, males, by gavage, site: testis, lesion: interstitial-cell adenoma, dosed 39 weeks, study length 104 weeks",19.8 mg/kg/day
same,TD50,"rat, strain Fischer 344, males, by gavage, site: testis, lesion: interstitial-cell adenoma, dosed 65 weeks, study length 104 weeks",8.22 mg/kg/day
same,TD50,"rat, strain Fischer 344, males, by gavage, site: testis, lesion: interstitial-cell adenoma, dosed 101 weeks, study length 104 weeks",3.62 mg/kg/day
same,TD50,"rat, strain Sprague-Dawley, females, in feed, site: liver, lesion: cholangiocarcinoma, dosed 110 weeks, study length 110 weeks",767 mg/kg/day
same,TD50,"rat, strain Sprague-Dawley, females, in feed, site: liver, lesion: several types, types named in the paper, dosed 110 weeks, study length 110 weeks",1440 mg/kg/day
same,TD50,"rat, strain Sprague-Dawley, males, in feed, site: liver, lesion: cholangiocarcinoma, dosed 104 weeks, study length 104 weeks",302 mg/kg/day
same,TD50,"rat, strain Sprague-Dawley, males, in feed, site: liver, lesion: several types, types named in the paper, dosed 104 weeks, study length 104 weeks",365 mg/kg/day
Nc1ccc2nc3ccccn3c2n1,TD50,"mouse, strain CDF1, females, in feed, site: blood vessels, lesion: hemangioendothelial sarcoma, dosed 82 weeks, study length 82 weeks",43 mg/kg/day
same,TD50,"mouse, strain CDF1, females, in feed, site: blood vessels, lesion: several types, types named in the paper, dosed 82 weeks, study length 82 weeks",39.9 mg/kg/day
same,TD50,"mouse, strain CDF1, females, in feed, site: liver, lesion: hepatocellular adenoma, dosed 82 weeks, study length 82 weeks",170 mg/kg/day
same,TD50,"mouse, strain CDF1, females, in feed, site: liver, lesion: hepatocellular carcinoma, dosed 82 weeks, study length 82 weeks",20 mg/kg/day
same,TD50,"mouse, strain CDF1, females, in feed, site: liver, lesion: several types, types named in the paper, dosed 82 weeks, study length 82 weeks",12 mg/kg/day
same,TD50,"mouse, strain CDF1, females, in feed, site: lung, lesion: adenoma, dosed 82 weeks, study length 82 weeks",1090 mg/kg/day
same,TD50,"mouse, strain CDF1, males, in feed, site: blood vessels, lesion: hemangioendothelial sarcoma, dosed 84 weeks, study length 84 weeks",27.3 mg/kg/day
same,TD50,"mouse, strain CDF1, males, in feed, site: blood vessels, lesion: several types, types named in the paper, dosed 84 weeks, study length 84 weeks",23.9 mg/kg/day
same,TD50,"mouse, strain CDF1, males, in feed, site: liver, lesion: hepatocellular adenoma, dosed 84 weeks, study length 84 weeks",201 mg/kg/day
same,TD50,"mouse, strain CDF1, males, in feed, site: liver, lesion: hepatocellular carcinoma, dosed 84 weeks, study length 84 weeks",255 mg/kg/day
same,TD50,"mouse, strain CDF1, males, in feed, site: liver, lesion: several types, types named in the paper, dosed 84 weeks, study length 84 weeks",93.2 mg/kg/day
same,TD50,"mouse, strain CDF1, males, in feed, site: lung, lesion: adenoma, dosed 84 weeks, study length 84 weeks",483 mg/kg/day
same,TD50,"rat, strain F344/DuCrj, females, in feed, site: Zymbal's gland, lesion: squamous-cell carcinoma, dosed 104 weeks, study length 104 weeks",94 mg/kg/day
same,TD50,"rat, strain F344/DuCrj, females, in feed, site: clitoral gland, lesion: one or several types, types not named, dosed 104 weeks, study length 104 weeks",56.4 mg/kg/day
same,TD50,"rat, strain F344/DuCrj, females, in feed, site: colon, lesion: adenocarcinoma, dosed 104 weeks, study length 104 weeks",351 mg/kg/day
same,TD50,"rat, strain F344/DuCrj, females, in feed, site: colon, lesion: adenoma, dosed 104 weeks, study length 104 weeks",111 mg/kg/day
same,TD50,"rat, strain F344/DuCrj, females, in feed, site: colon, lesion: several types, types named in the paper, dosed 104 weeks, study length 104 weeks",81.1 mg/kg/day
same,TD50,"rat, strain F344/DuCrj, females, in feed, site: liver, lesion: several types, types named in the paper, dosed 104 weeks, study length 104 weeks",351 mg/kg/day
same,TD50,"rat, strain F344/DuCrj, females, in feed, site: small intestine, lesion: adenocarcinoma, dosed 104 weeks, study length 104 weeks",135 mg/kg/day
same,TD50,"rat, strain F344/DuCrj, females, in feed, site: small intestine, lesion: adenoma, dosed 104 weeks, study length 104 weeks",171 mg/kg/day
same,TD50,"rat, strain F344/DuCrj, females, in feed, site: small intestine, lesion: mucinous carcinoma, dosed 104 weeks, study length 104 weeks",711 mg/kg/day
same,TD50,"rat, strain F344/DuCrj, females, in feed, site: small intestine, lesion: several types, types named in the paper, dosed 104 weeks, study length 104 weeks",81.1 mg/kg/day
same,TD50,"rat, strain F344/DuCrj, males, in feed, site: Zymbal's gland, lesion: squamous-cell carcinoma, dosed 104 weeks, study length 104 weeks",569 mg/kg/day
same,TD50,"rat, strain F344/DuCrj, males, in feed, site: brain, lesion: astrocytoma, dosed 104 weeks, study length 104 weeks",281 mg/kg/day
same,TD50,"rat, strain F344/DuCrj, males, in feed, site: colon, lesion: adenocarcinoma, dosed 104 weeks, study length 104 weeks",185 mg/kg/day
same,TD50,"rat, strain F344/DuCrj, males, in feed, site: colon, lesion: adenoma, dosed 104 weeks, study length 104 weeks",185 mg/kg/day
same,TD50,"rat, strain F344/DuCrj, males, in feed, site: colon, lesion: several types, types named in the paper, dosed 104 weeks, study length 104 weeks",88.9 mg/kg/day
same,TD50,"rat, strain F344/DuCrj, males, in feed, site: liver, lesion: several types, types named in the paper, dosed 104 weeks, study length 104 weeks",52.1 mg/kg/day
same,TD50,"rat, strain F344/DuCrj, males, in feed, site: small intestine, lesion: adenocarcinoma, dosed 104 weeks, study length 104 weeks",45.1 mg/kg/day
same,TD50,"rat, strain F344/DuCrj, males, in feed, site: small intestine, lesion: adenoma, dosed 104 weeks, study length 104 weeks",137 mg/kg/day
same,TD50,"rat, strain F344/DuCrj, males, in feed, site: small intestine, lesion: mucinous carcinoma, dosed 104 weeks, study length 104 weeks",281 mg/kg/day
same,TD50,"rat, strain F344/DuCrj, males, in feed, site: small intestine, lesion: several types, types named in the paper, dosed 104 weeks, study length 104 weeks",33.8 mg/kg/day
OO,TD50,"mouse, strain C57BL/6J, females, in drinking water, site: duodenum, lesion: adenoma, dosed 100 weeks, study length 100 weeks",2010 mg/kg/day
same,TD50,"mouse, strain C57BL/6J, females, in drinking water, site: duodenum, lesion: carcinoma, dosed 100 weeks, study length 100 weeks",7540 mg/kg/day
same,TD50,"mouse, strain C57BL/6J, females, in drinking water, site: duodenum, lesion: several types, types named in the paper, dosed 100 weeks, study length 100 weeks",7830 mg/kg/day
same,TD50,"mouse, strain C57BL/6J, males, in drinking water, site: duodenum, lesion: adenoma, dosed 100 weeks, study length 100 weeks",7350 mg/kg/day
same,TD50,"mouse, strain C57BL/6J, males, in drinking water, site: duodenum, lesion: carcinoma, dosed 100 weeks, study length 100 weeks",15000 mg/kg/day
same,TD50,"mouse, strain C57BL/6J, males, in drinking water, site: duodenum, lesion: several types, types named in the paper, dosed 100 weeks, study length 100 weeks",4800 mg/kg/day
